# Test results as given in patent US20250129012A1, “ANTI-INFLAMMATORY AND ANALGESIC COMPOUNDS AND USE THEREOF” (JIANGSU ATOM BIOSCIENCE AND PHARMACEUTICAL CO., LTD., priority 2021, published 2025).
# Marks after values point to notes of the source that are not given here.
# Key:
# IL-1β = experiment: Inflammatory factor experiment B: IL-1β in knee synovial tissue (ELISA); assay type: in vivo, SD rats
# [1] = test system: gouty arthritis rats (sodium urate, right ankle and knee joint cavities); experiment: Pharmacodynamics experiment B on gouty arthritis rats: gait score; assay type: in vivo, SD rats; settings: for Gait Score: mean
# Outline: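 Male SD rats (180-220 g) received test compounds by gavage as 0.5% CMC-Na suspensions, once daily for 7 days before modeling and for 3 days afterward. Gouty arthritis was induced by injecting 0.2 mL sodium urate solution into the right ankle and knee joint cavities. Gait was graded 0-3 using modified Coderre criteria, and group mean scores were compared with the model group by ANOVA-Dunnett T-test (P<0.05).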
# TNF-α = experiment: Inflammatory factor experiment A: TNF-α in gouty arthritis rats; assay type: in vivo, SD rats
# Procedure: Compounds 14, 17 and 26 were prepared by grinding with 0.5% CMC-Na before administration and into a suspension for gavage at the corresponding concentration (0.06 mg/mL), with a dosage volume of 10 mL/kg. Colchicine, purchased from Sun Chemical Technology (Shanghai) Co., Ltd. with batch no. 49ETRRAS, and was prepared by grinding with 0.5% CMC-Na before administration and into a suspension for gavage at the corresponding concentration (0.06 mg/mL), with a dosage volume of 10 mL/kg.
# The compounds in each group were prepared into a suspension of the corresponding concentration, and the dosage volume was 10 mL/kg.
# The crystalline arthritis model was prepared by intra-articular injection of urate crystals (40 mg/mL in the left ankle joint of each rat). Different doses of the test compounds were given separately by gavage administration. The day of administration was defined as day 1 of the experiment, and the compounds were administered once a day for 10 consecutive days (pre-administration of the drug for 7 days prior to modeling, modeling on day 8, and continuation of the drug for 3 days). The experiment ended on day 10. […]
# [2] = test system: novel coronavirus infection; settings: cited from earlier work
# ICR mice = experiment: Acute toxicity test in mice by single administration; assay type: in vivo; settings: single gavage dose 50 mg/kg; 14 days; deaths/animals
# Procedure: (§1) Compounds 34, 48, 55 and 58 were ground with 0.5% CMC-Na before administration, and prepared into a suspension of the corresponding concentration for gavage, with an administration volume of 0.1 mL/10 g.
# (§2) ICR mice, SPF grade, weighing 18-20 g, 6-8 weeks old, were provided by Nantong University. The Laboratory Animal Production License was SCXK (Su) 2016-0010 and Laboratory Animal Use License was SYXK (Su) 2017-0035.
# (§3) After overnight fasting, the drug was administered once by gavage in a volume of 0.1 mL/10 g. The normal group was given the corresponding volume of 0.5% CMC-Na solution according to body weight. The state of the animal was observed after administration, the animals were weighed daily and the number of deaths was recorded for 14 consecutive days.
# [3] = as above; assay type: in vivo, ICR mice; settings: both sexes, ICR, mouse, in vivo, po; acute toxicity, mice, single gavage; read-out: Maximum tolerated dose (MTD)
# Procedure: as §1, §2, §3
# IL-6 = experiment: Inflammatory factor experiment B: IL-6 in knee synovial tissue (ELISA); assay type: in vivo, SD rats
# [4] = compounds 0.6 mg/kg, colchicine 0.6 and 1.2 mg/kg
# [5] = 4,159 patients with nasopharyngeal nucleic acid test
compound,measurement,setting,value
"COc1cc2c(c(OC)c1OC)-c1ccc(OC)c(=O)cc1[C@@H](NC(C)=O)CC2 [colchicine, reference compound]",inhibition in vivo at 0.6 mg/kg,"IL-1β; Rattus norvegicus, po, synovial tissue of knee joints, 48 h after modeling, dose 0.6 mg/kg, read-out: IL-1β percentage decrease %",74.2%
same,inhibition in vivo at 1.2 mg/kg,"IL-1β; Rattus norvegicus, po, synovial tissue of knee joints, 48 h after modeling, dose 1.2 mg/kg (high dose group), read-out: IL-1β percentage decrease %",63.1%
same,"IL-1β level after modeling, in words",IL-1β; [4],reduced IL-1β in synovial tissue
same,Gait Score,"[1]; 2 h, dose 0.6 mg/kg gavage",0
same,Gait Score,"[1]; 2 h, dose 1.2 mg/kg gavage (high dose group)",0
same,Gait Score,"[1]; 4 h, dose 0.6 mg/kg gavage",0.02*
same,Gait Score,"[1]; 4 h, dose 1.2 mg/kg gavage (high dose group)",0**
same,Gait Score,"[1]; 8 h, dose 0.6 mg/kg gavage",0.24*
same,Gait Score,"[1]; 8 h, dose 1.2 mg/kg gavage (high dose group)",0.1**
same,Gait Score,"[1]; 10 h, dose 0.6 mg/kg gavage",0.16**
same,Gait Score,"[1]; 10 h, dose 1.2 mg/kg gavage (high dose group)",0.18**
same,Gait Score,"[1]; 24 h, dose 0.6 mg/kg gavage",0.02*
same,Gait Score,"[1]; 24 h, dose 1.2 mg/kg gavage (high dose group)",0*
same,Gait Score,"[1]; 48 h, dose 0.6 mg/kg gavage",0.02
same,Gait Score,"[1]; 48 h, dose 1.2 mg/kg gavage (high dose group)",0
same,"Gait versus model group, in words",[1]; [4],significantly improved the gait of rats
same,"TNF-α level after modeling, in words",TNF-α; 0.6 mg/kg,can reduce the TNF-α level
same,Decreased TNF-α percentage %,"TNF-α; synovial tissue of knee joints, dose 0.6 mg/kg gavage, day 10",93.73%
same,Reduction of hospital admissions,[2]; [5],25%
same,Reduction of need for respiratory equipment,[2]; [5],50%
same,Reduction of number of deaths,[2]; [5],44%
same,Lower risk of hospitalization or death compared with placebo,"[2]; 4,488 non-hospitalized patients",21%
same,Mortality rate,ICR mice,3/6
same,MTD at 14 days,[3],< 50 mg/kg
same,inhibition in vivo at 0.6 mg/kg,"IL-6; Rattus norvegicus, po, synovial tissue of knee joints, 48 h after modeling, dose 0.6 mg/kg, read-out: IL-6 percentage decrease %",83.5%
same,inhibition in vivo at 1.2 mg/kg,"IL-6; Rattus norvegicus, po, synovial tissue of knee joints, 48 h after modeling, dose 1.2 mg/kg (high dose group), read-out: IL-6 percentage decrease %",96.3%
same,"IL-6 level after modeling, in words",IL-6; [4],could reduce the IL-6 level
